From the supplement of paper PMC10307832

Assays:
XMD8-85 + AZD7762 = compound: CN1CCN(CC1)C2=CC(=C(C=C2)NC3=NC=C4C(=N3)N(C5=CC=CC=C5C(=O)N4C)C)OC [XMD8-85] + NC(=O)Nc1cc(-c2cccc(F)c2)sc1C(=O)N[C@H]1CCCNC1 [AZD7762] (partner 0.2 µM); assay: relative viability (nuclei count vs DMSO), 5 days (fraction); higher = more cells survive
How it was run: (§1)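 Relative viability equals treated-well nuclei counts divided by vehicle-well nuclei counts. Counts came from 4× images of lung cancer cell lines grown in 1536-well plates for 5 days after pin-tool dosing on the day after seeding. Dosing used one drug alone or a fixed anchor-drug dose plus five library-drug doses (not always all listed) in √10 steps, and values are medians of duplicate plates.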

XMD8-85 + Trametinib = compound: CN1CCN(CC1)C2=CC(=C(C=C2)NC3=NC=C4C(=N3)N(C5=CC=CC=C5C(=O)N4C)C)OC [XMD8-85] + CC(=O)Nc1cccc(-n2c(=O)n(C3CC3)c(=O)c3c(Nc4ccc(I)cc4F)n(C)c(=O)c(C)c32)c1 [Trametinib] (partner 0.02 µM); assay: as above
How it was run: as §1

Cell Line	relative viability (XMD8-85 + AZD7762; first compound 0.08 µM)	relative viability (XMD8-85 + AZD7762; first compound 0.253 µM)	relative viability (XMD8-85 + AZD7762; first compound 0.8 µM)	relative viability (XMD8-85 + AZD7762; first compound 2.53 µM)	relative viability (XMD8-85 + AZD7762; first compound 8 µM)	relative viability (XMD8-85 + Trametinib; first compound 0.08 µM)	relative viability (XMD8-85 + Trametinib; first compound 0.253 µM)	relative viability (XMD8-85 + Trametinib; first compound 0.8 µM)	relative viability (XMD8-85 + Trametinib; first compound 2.53 µM)	relative viability (XMD8-85 + Trametinib; first compound 8 µM)
NCI-H727	0.768	0.619	0.465	0.576	0.42	0.373	0.375	0.405	0.37	0.368
LCLC-103H	0.769	0.825	0.811	0.851	0.781	0.728	0.637	0.683	0.676	0.522
ABC-1	0.904	0.805	0.799	0.876	0.859	–	–	–	–	–
NCI-H3122	1.05	1.08	1.05	1.06	1.14	0.251	0.223	0.271	0.303	0.283
NCI-H1648	0.483	0.572	0.587	0.717	0.726	0.493	0.416	0.397	0.337	0.354
NCI-H1703	0.107	0.147	0.133	0.119	0.107	–	–	–	–	–
HOP-62	0.497	0.708	0.523	–	0.421	0.368	0.378	0.34	0.339	0.129
NCI-H2405	0.636	0.741	0.73	0.708	0.467	0.572	0.597	0.637	0.647	0.628
LXF-289	1.09	1.16	1.16	1.12	0.995	0.658	0.646	0.696	0.728	0.656
NCI-H1355	0.678	0.697	0.798	0.817	–	0.414	0.424	0.384	0.356	0.284
NCI-H596	1.18	0.944	1.06	1.1	0.966	0.866	0.72	0.675	0.769	0.696
NCI-H1975	0.742	0.656	0.661	0.653	0.547	0.37	0.376	0.334	0.361	0.268
H3255	0.979	0.868	0.894	0.925	0.554	0.576	0.593	0.465	0.554	0.373
COR-L 105	–	–	–	–	–	0.432	0.465	0.433	0.506	0.437
COR-L23	–	–	–	–	–	0.488	0.548	0.651	0.548	0.333
NCI-H1793	–	0.408	0.483	0.344	0.413	–	0.483	0.37	0.481	0.442
NCI-H2085	0.851	0.936	0.948	0.993	0.881	0.651	0.469	0.427	0.514	0.355
SW 900	0.555	0.669	0.589	0.626	0.304	0.813	0.746	0.935	–	0.759

Cell Line	relative viability (XMD8-85 + AZD7762; first compound 0.08 µM)	relative viability (XMD8-85 + AZD7762; first compound 0.253 µM)	relative viability (XMD8-85 + AZD7762; first compound 0.8 µM)	relative viability (XMD8-85 + AZD7762; first compound 2.53 µM)	relative viability (XMD8-85 + AZD7762; first compound 8 µM)	relative viability (XMD8-85 + Trametinib; first compound 0.08 µM)	relative viability (XMD8-85 + Trametinib; first compound 0.253 µM)	relative viability (XMD8-85 + Trametinib; first compound 0.8 µM)	relative viability (XMD8-85 + Trametinib; first compound 2.53 µM)	relative viability (XMD8-85 + Trametinib; first compound 8 µM)
NCI-H520	–	–	–	–	–	–	0.728	0.689	0.604	0.496
NCI-H358	0.446	0.497	0.667	0.639	0.399	0.111	0.139	0.128	0.11	0.132
NCI-H1650	–	–	–	–	–	0.629	0.539	0.784	0.426	0.36
RERF-LC-KJ	1.01	0.98	0.936	1.3	0.886	0.887	0.853	0.873	0.904	0.727
LOU-NH91	0.678	0.763	0.806	0.835	0.59	0.792	0.807	0.755	0.785	0.621
HCC-15	1.16	1.06	1.13	1.12	1.02	0.396	0.315	0.408	0.408	0.287
NCI-H23	0.173	0.287	0.23	0.18	0.2	0.419	0.402	0.369	0.28	0.24
HCC-78	0.556	0.582	0.728	1.13	0.499	1.14	1.02	0.735	0.536	0.402
LC-2-ad	0.808	0.837	0.895	0.779	0.596	0.93	0.914	0.955	0.997	0.458
HCC-44	1.05	1.06	1	1.01	1.06	1.11	1.12	1.12	1.04	1.01
HCC-366	0.216	0.311	0.335	0.336	0.259	0.33	0.35	0.467	0.324	0.307
NCI-H2342	0.509	0.478	0.552	0.511	0.488	0.747	0.807	0.859	0.922	0.991
PC-14	0.352	0.364	0.34	0.394	0.18	0.733	0.703	0.756	0.6	0.306
NCI-H647	0.306	0.371	0.586	0.503	0.198	0.478	0.486	0.485	0.465	0.28
201T	0.566	0.651	0.669	0.698	0.575	0.718	0.746	0.738	0.681	0.617
PC-3 [JPC-3]	–	0.782	0.82	0.712	0.411	0.672	0.83	0.75	0.717	0.599
HCC-827	0.23	0.185	0.231	0.263	0.206	0.55	0.461	0.528	0.512	0.496
NCI-H1395	0.382	0.393	0.395	0.418	0.35	0.832	1.08	0.995	1.04	0.829
